Converted amounts (≈) assume the structure as drawn.
Experiments:
[1] = Metabolic stability in rat liver microsomes at 2 uM after 30 mins by LC-MS method; type: ADME, microsome; conditions: 0.5 h
[2] = tested on: Mycobacterium tuberculosis; assay: Antitubercular activity against Mycobacterium tuberculosis H37Rv expressing DsRed using 7H9-Ty-10BT medium after 6 days by 2-fold serial dilution method; type: functional; conditions: 144 h
[3] = Aqueous solubility of the compound at pH 7.4; type: physicochemical; conditions: buffer
[4] = Aqueous solubility of the compound at pH 6; type: physicochemical; conditions: buffer

With `c1ccc(-c2nnc(CN3CCCc4ccccc43)o2)cc1` the Stability [1] was “Stable”.

In the case of `c1csc(-c2nnc(COc3ccc4c(c3)OCO4)o2)c1`, the Stability [1] is reported as “Stable”.

In the case of `c1csc(-c2nnc(Cc3cccc4ccccc34)o2)c1`, the MIC [2] is reported as 0.4 µM (≈ 0.117 µg/mL) and the Stability [1] is reported as “Stable”.

In the case of `Fc1cccc(Cl)c1CNCc1nnc(-c2ccco2)o1`, the Stability [1] is reported as “Stable”.

For `c1csc(-c2nnc(CN3CCc4ccccc43)o2)c1`, the Stability [1] was “Stable”.

In the case of `CN(CCc1c(F)cccc1Cl)c1nnc(-c2ccco2)o1`, the Stability [1] is reported as “Stable”.

For `c1ccc(-c2nnc(CN3Cc4ccccc4C3)o2)cc1`, the Stability [1] was “Stable”.

In the case of `c1coc(-c2nnc(Cc3cccc4ccccc34)o2)c1`, the Stability [1] is reported as “Stable”.

In the case of `CN(Cc1nnc(-c2ccco2)s1)Cc1c(F)cccc1Cl`, the Stability [1] is reported as “Stable”.

`CN(Cc1nnc(-c2ccco2)o1)Cc1c(F)cccc1Cl.O=C(O)/C=C\C(=O)O` showed a solubility thermodynamic [3] of 717 µg/mL and a solubility [4] of 687 µg/mL.

In the case of `c1ccc(C2CCCN2Cc2nnc(-c3cccs3)o2)cc1` (stereo unspecified), the Stability [1] is reported as “Stable”.

In the case of `c1coc(-c2nnc(SCc3cccc4ccccc34)o2)c1`, the Stability [1] is reported as “Stable”.

For `CN(Cc1nnc(-c2ccco2)o1)C(=O)c1c(F)cccc1Cl`, the Stability [1] was “Stable”.

For `c1csc(-c2nnc(CN3Cc4ccccc4C3)o2)c1`, the Stability [1] was “Stable”.

In the case of `c1ccc(-c2nnc(CN3CCOc4ccccc43)o2)cc1`, the Stability [1] is reported as “Stable”.

With `c1csc(-c2nnc(Cc3ccc4ccccc4c3)o2)c1` the Stability [1] was “Stable”.

With `CN(Cc1ccc(C(F)(F)F)cc1)Cc1nnc(-c2ccccc2)o1` the Stability [1] was “Stable”.

For `Fc1ccc(-c2nnc(CN3CCCc4ccccc43)o2)cc1`, the Stability [1] was “Stable”.

For `FC(F)(F)c1ccc(-c2nnc(CN3CCc4ccccc4C3)o2)cc1`, the Stability [1] was “Stable”.

For `Fc1cccc(Cl)c1COCc1nnc(-c2ccco2)o1`, the Stability [1] was “Stable”.

In the case of `CN(Cc1ccccc1)Cc1nnc(-c2cccs2)o1`, the Stability [1] is reported as “Stable”.

For `c1ccc(-c2nnc(CN3CCc4ccccc4C3)o2)cc1`, the Stability [1] was “Stable”.

For `c1ccc(-c2nnc(CN3CCCC3c3ccccc3)o2)cc1` (stereo unspecified), the Stability [1] was “Stable”.

With `Fc1ccc(-c2nnc(CN3CCOc4ccccc43)o2)cc1` the Stability [1] was “Stable”.

With `CN(Cc1nnc(-c2ccco2)o1)Cc1ccccc1Cl` the Stability [1] was “Stable”.

In the case of `c1csc(-c2nnc(Cc3cccc4c3OCCO4)o2)c1`, the Stability [1] is reported as “Stable”.

In the case of `CC1CCc2ccccc2N1Cc1nc(-c2ccsc2)no1` (stereo unspecified), the MIC [2] is reported as 2.2 µM (≈ 0.685 µg/mL) and the Stability [1] is reported as “Stable”.

With `c1csc(-c2nnc(CN3CCOc4ccccc43)o2)c1` the Stability [1] was “Stable”.

With `CN(Cc1ccc(C(F)(F)F)cc1)Cc1nnc(-c2cccs2)o1` the Stability [1] was “Stable”.

For `CN(Cc1nnc(-c2ccccc2)o1)Cc1c(F)cccc1Cl`, the Stability [1] was “Stable”.

With `FC(F)(F)c1ccc(-c2nnc(CN3CCCc4ccccc43)o2)cc1` the Stability [1] was “Stable”.

In the case of `Fc1ccc(-c2nnc(CN3CCc4ccccc4C3)o2)cc1`, the Stability [1] is reported as “Stable”.

In the case of `c1csc(-c2nnc(CN3CCc4ccccc4C3)o2)c1`, the Stability [1] is reported as “Stable”.

With `FC(F)(F)c1ccc(-c2nnc(CN3CCOc4ccccc43)o2)cc1` the Stability [1] was “Stable”.

With `c1ccc(-c2nnc(CN3CCc4ccccc43)o2)cc1` the Stability [1] was “Stable”.

In the case of `CN(Cc1ccc(F)cc1)Cc1nnc(-c2ccccc2)o1`, the Stability [1] is reported as “Stable”.

For `CN(Cc1nnc(-c2cccs2)o1)Cc1c(F)cccc1Cl`, the Stability [1] was “Stable”.

In the case of `CN(Cc1ccccc1)Cc1nnc(-c2ccco2)o1`, the Stability [1] is reported as “Stable”.

For `CN(Cc1nnc(-c2ccco2)o1)CC1CCCCC1`, the Stability [1] was “Stable”.

With `c1ccc(Cc2nnc(-c3cccs3)o2)cc1` the Stability [1] was “Stable”.

In the case of `CN(Cc1nnc(-c2ccco2)o1)Cc1c(F)cccc1Cl`, the MIC [2] is reported as 0.8 µM (≈ 0.257 µg/mL) and the Stability [1] is reported as “Stable”.

In the case of `c1csc(-c2nnc(CN3CCCc4ccccc43)o2)c1`, the Stability [1] is reported as “Stable”.
